Results taken from patent US20240246937A1 (MERCK SHARP & DOHME LLC, priority 2021, published 2024).

These molecules were tested against recombinant IL4I1 (Homo sapiens (Human), UniProt Q96RQ9) (assay: IL4I1 Enzymatic Assay (Amplex Red/HRP coupled fluorescence detection of H2O2)). Details: 240 min; recombinant IL4I1, four-hour pre-incubation with compound.
Type: biochemical
Method: Interleukin 4 inducible protein 1 (IL4I1) is an L-amino oxidase that catalyzes the oxidation of aromatic residues (Phe, Trp and Tyr): L-amino acid+H2O+O2→2-oxo acid+NH3+H2O2. Equal molar of H2O2 and the corresponding alpha-ketoacid are produced when IL4I1 and substrate are added. In this assay, the hydrogen peroxide generated by IL4I1 is then detected through a coupled reaction with Amplex® Red (10-acetyl-3,7-dihydroxyphenoxazine) and horseradish peroxidase (HRP) to produce resorufin product that could be detected in the form of fluorescence signals. The assessment of the inhibitory effect of small molecules (EC50) on IL4I1 is measured by the effectiveness of the compounds to inhibit the production of H2O2.
Using this assay, the potency (EC50) of each compound was determined from a ten-point (1:3 serial dilution) titration curve using the following outlined procedure. To each well of a black flat-bottom Greiner (Cat #781076) 384 well-plate, 25 nL of compound (0.1% DMSO in final assay volume of 25 μL) was dispensed, followed by the addition of 12.5 μL of 1× assay buffer (50 mM Hepes 7.0 and 0.005% Tween20 (Sigma, Cat #P8341; low peroxide grade)) containing 2 nM of recombinant IL4I1 (R&D Systems, Cat #5684-AO-020). Plates were placed in an ambient temperature humidified chamber for a four-hour pre-incubation with compound. Subsequently, each reaction was initiated by the addition of 12.5 μL 1× assay buffer containing 2 mM of each aromatic amino acids (Phe/Tyr/Trp), 0.1 mM Amplex Red and 2 U/mL of HRP. The final reaction in each well of 25 μL consisted of 1 nM of IL4I1, 1 mM of each residues (Phe, Tyr and Trp), 0.05 mM Amplex Red and 1 U/mL of HRP. It should be noted that the concentrations of Amplex Red and HRP used here were in excess such that the conversion of H2O2 to resorufin product occurred instantaneously and was non-rate limiting. Reactions were allowed to proceed for 120 minutes followed by fluorescence readout on a Spectramax with the following set parameters: 544 nm excitation/590 nm emission, 570 nm cutoff (EnVision is an alternative reader). Dose-response curves were generated by plotting percent effect (% product conversion; Y-axis) vs. Log10 compound concentrations (X-axis). EC50 values were calculated using a non-linear regression, four-parameters sigmoidal dose-response model and are shown in Potency Table 1.

recombinant IL4I1, sequence (Q96RQ9 22-567): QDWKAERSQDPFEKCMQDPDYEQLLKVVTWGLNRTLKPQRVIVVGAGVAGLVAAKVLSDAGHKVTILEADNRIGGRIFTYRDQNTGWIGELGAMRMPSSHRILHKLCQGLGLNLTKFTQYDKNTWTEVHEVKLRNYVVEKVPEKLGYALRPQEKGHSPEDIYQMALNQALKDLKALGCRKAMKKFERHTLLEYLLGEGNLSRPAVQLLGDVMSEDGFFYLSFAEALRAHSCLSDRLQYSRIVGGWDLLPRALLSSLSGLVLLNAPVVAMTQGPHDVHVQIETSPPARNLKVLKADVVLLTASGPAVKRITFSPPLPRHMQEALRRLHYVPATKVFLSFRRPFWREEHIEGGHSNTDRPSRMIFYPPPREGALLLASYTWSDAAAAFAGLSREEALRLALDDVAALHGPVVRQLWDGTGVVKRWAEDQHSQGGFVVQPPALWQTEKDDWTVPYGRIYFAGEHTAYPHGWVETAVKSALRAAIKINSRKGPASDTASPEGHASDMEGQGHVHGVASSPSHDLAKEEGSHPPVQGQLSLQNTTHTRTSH

| Compound | EC50 |
| --- | --- |
| O=c1c(=O)n(C2CCCC2)ccn1Cc1ccc(-c2ccccc2)nn1 [Example 52, 1-cyclopentyl-4-((6-phenylpyridazin-3-yl)methyl)-1,4-dihydropyrazine-2,3-dione] | 4 nM |
| O=c1c(=O)n(C2CCCC2)ccn1Cc1ccc(-c2ccccc2F)nn1 [Example 53, 1-cyclopentyl-4-((6-(2-fluorophenyl)pyridazin-3-yl)methyl)-1,4-dihydropyrazine-2,3-dione] | 7 nM |
| O=c1c(=O)n(C2CCC2)ccn1Cc1cc(-c2cccc(F)c2)on1 [Example 54, 1-cyclobutyl-4-((5-(3-fluorophenyl)isoxazol-3-yl)methyl)-1,4-dihydropyrazine-2,3-dione] | 2 nM |
| O=c1c(=O)n(C2CCC2)ccn1Cc1cc(-c2ccc(F)cc2)on1 [Example 55, 1-cyclobutyl-4-((5-(4-fluorophenyl)isoxazol-3-yl)methyl)-1,4-dihydropyrazine-2,3-dione] | 1 nM |
| O=c1c(=O)n(C2CCC2)ccn1Cc1cc(-c2ccccc2F)on1 [Example 57, 1-cyclobutyl-4-((5-(2-fluorophenyl)isoxazol-3-yl)methyl)-1,4-dihydropyrazine-2,3-dione] | 3 nM |
| O=c1c(=O)n([C@H]2C[C@H]3C[C@H]3C2)ccn1Cc1ccc(-c2ccccc2)nn1 [Example 58, 1-((cis)-bicyclo[3.1.0]hexan-3-yl)-4-((6-phenylpyridazin-3-yl)methyl)-1,4-dihydropyrazine-2,3-dione] | 4 nM |
| O=C1C(=O)N(C2CCCC2)CCN1Cc1cc(-c2ccccc2F)on1 [Example 60, 1-cyclopentyl-4-((5-(2-fluorophenyl)isoxazol-3-yl)methyl)piperazine-2,3-dione] | 10 nM |
| O=C1C(=O)N([C@H]2C[C@H]3C[C@H]3C2)CCN1Cc1ccc(-c2ccccc2F)nn1 [Example 62, 1-((cis)-bicyclo[3.1.0]hexan-3-yl)-4-((6-(2-fluorophenyl)pyridazin-3-yl)methyl)piperazine-2,3-dione] | 4 nM |
| O=c1c(=O)n(C23CC(C2)C3)ccn1Cc1ccc(-c2cccc(F)c2)nn1 [Example 64, 1-(bicyclo[1.1.1]pentan-1-yl)-4-((6-(3-fluorophenyl)pyridazin-3-yl)methyl)-1,4-dihydropyrazine-2,3-dione] | 4 nM |
| O=C1C(=O)N(C23CC(C2)C3)CCN1Cc1ccc(-c2ccccc2F)nn1 [Example 66, 1-(bicyclo[1.1.1]pentan-1-yl)-4-((6-(2-fluorophenyl)pyridazin-3-yl)methyl)piperazine-2,3-dione] | 7 nM |
| O=c1c(=O)n([C@H]2C[C@H]3C[C@H]3C2)ccn1Cc1cc(-c2cccc(F)c2)on1 [Example 67, 1-((cis)-bicyclo[3.1.0]hexan-3-yl)-4-((5-(3-fluorophenyl)isoxazol-3-yl)methyl)-1,4-dihydropyrazine-2,3-dione] | 1 nM |
| O=c1c(=O)n(C23CC(C2)C3)ccn1Cc1nnc(-c2ccccc2F)s1 [Example 68, 1-(bicyclo[1.1.1]pentan-1-yl)-4-((5-(2-fluorophenyl)-1,3,4-thiadiazol-2-yl)methyl)-1,4-dihydropyrazine-2,3-dione] | 5 nM |
| O=c1c(=O)n(C2CCC2)ccn1Cc1ccc(-c2cccc(F)c2F)nn1 [Example 71, 1-cyclobutyl-4-((6-(2,3-difluorophenyl)pyridazin-3-yl)methyl)-1,4-dihydropyrazine-2,3-dione] | 6 nM |
| O=C1C(=O)N(C2CCC2)CCN1Cc1cnc(-c2ccccc2F)cn1 [Example 73, 1-cyclobutyl-4-((5-(2-fluorophenyl)pyrazin-2-yl)methyl)piperazine-2,3-dione] | 9 nM |
| O=c1c(=O)n(C23CC(C2)C3)ccn1Cc1cnc(-c2ccccc2F)cn1 [Example 75, 1-(bicyclo[1.1.1]pentan-1-yl)-4-((5-(2-fluorophenyl)pyrazin-2-yl)methyl)-1,4-dihydropyrazine-2,3-dione] | 7 nM |

Further lines, results first:

| EC50 | Compound |
| --- | --- |
| 8 nM | O=C1C(=O)N([C@H]2C[C@H]3C[C@H]3C2)CCN1Cc1ccc(-c2ccccc2F)nn1 [Example 51, 1-((1R,3r,5S)-bicyclo[3.1.0]hexan-3-yl)-4-((6-(2-fluorophenyl)pyridazin-3-yl)methyl)piperazine-2,3-dione] |
| 1 nM | O=c1c(=O)n(C2CCC2)ccn1Cc1cc(-c2ccccc2)on1 [Example 56, 1-cyclobutyl-4-((5-phenylisoxazol-3-yl)methyl)-1,4-dihydropyrazine-2,3-dione] |
| 5 nM | O=c1c(=O)n(C2CCCC2)ccn1Cc1ccc(-c2cccc(F)c2)nn1 [Example 59, 1-cyclopentyl-4-((6-(3-fluorophenyl)pyridazin-3-yl)methyl)-1,4-dihydropyrazine-2,3-dione] |
| 5 nM | O=c1c(=O)n(C2CCCC2)ccn1Cc1cc(-c2ccccc2F)on1 [Example 61, 1-cyclopentyl-4-((5-(2-fluorophenyl)isoxazol-3-yl)methyl)-1,4-dihydropyrazine-2,3-dione] |
| 3 nM | O=c1c(=O)n(C2CCC2)ccn1Cc1ccc(-c2cccc(F)c2)nn1 [Example 63, 1-cyclobutyl-4-((6-(3-fluorophenyl)pyridazin-3-yl)methyl)-1,4-dihydropyrazine-2,3-dione] |
| 4 nM | O=C1C(=O)N(C23CC(C2)C3)CCN1Cc1ccc(-c2cccc(F)c2)nn1 [Example 65, 1-(bicyclo[1.1.1]pentan-1-yl)-4-((6-(3-fluorophenyl)pyridazin-3-yl)methyl)piperazine-2,3-dione] |
| 3 nM | O=C1C(=O)N(C2CCC2)CCN1Cc1ncc(-c2ccccc2)s1 [Example 69, 1-cyclobutyl-4-((5-phenylthiazol-2-yl)methyl)piperazine-2,3-dione] |
| 4 nM | O=C1C(=O)N(C2CCC2)CCN1Cc1cnc(-c2ccccc2)s1 [Example 70, 1-cyclobutyl-4-((2-phenylthiazol-5-yl)methyl)piperazine-2,3-dione] |
| 2 nM | O=c1c(=O)n(C2CCC2)ccn1Cc1ccc(-c2ccccc2F)nc1 [Example 72, 1-cyclobutyl-4-((6-(2-fluorophenyl)pyridin-3-yl)methyl)-1,4-dihydropyrazine-2,3-dione] |
| 5 nM | O=c1c(=O)n(C2CCC2)ccn1Cc1cnc(-c2ccccc2F)cn1 [Example 74, 1-cyclobutyl-4-((5-(2-fluorophenyl)pyrazin-2-yl)methyl)-1,4-dihydropyrazine-2,3-dione] |
| 4 nM | O=C1C(=O)N(C23CC(C2)C3)CCN1Cc1cc(-c2cccc(F)c2)on1 [Example 76, 1-(bicyclo[1.1.1]pentan-1-yl)-4-((5-(3-fluorophenyl)isoxazol-3-yl)methyl)piperazine-2,3-dione] |
| 3 nM | O=c1c(=O)n(C23CC(C2)C3)ccn1Cc1cc(-c2ccccc2F)on1 [Example 77, 1-(bicyclo[1.1.1]pentan-1-yl)-4-((5-(2-fluorophenyl)isoxazol-3-yl)methyl)-1,4-dihydropyrazine-2,3-dione] |
| 6 nM | O=C1C(=O)N(C2CCC2)CCN1Cc1cnc(-c2ccccc2F)s1 [Example 78, 1-cyclobutyl-4-((2-(2-fluorophenyl)thiazol-5-yl)methyl)piperazine-2,3-dione] |
| 5 nM | O=C1C(=O)N(C2CCC2)CCN1Cc1cnc(-c2cccc(F)c2)s1 [Example 79, 1-cyclobutyl-4-((2-(3-fluorophenyl)thiazol-5-yl)methyl)piperazine-2,3-dione] |
| 15 nM | [2H]c1c([2H])c([2H])c(-c2ccc(CN3CCN(C4CCC4)C(=O)C3=O)nn2)c([2H])c1[2H] [Example 80, 1-cyclobutyl-4-((6-(phenyl-d5)pyridazin-3-yl)methyl)piperazine-2,3-dione] |
| 60 nM | O=C1C(=O)N(C2CCC2)CCN1Cc1ccc(-c2cc(Br)ccc2F)nn1 [Example 81, 1-((6-(5-bromo-2-fluorophenyl)pyridazin-3-yl)methyl)-4-cyclobutylpiperazine-2,3-dione] |
| 10 nM | CC1(n2ccn(Cc3nnc(-c4cccc(F)c4)s3)c(=O)c2=O)CCC1 [Example 82, 1-((5-(3-fluorophenyl)-1,3,4-thiadiazol-2-yl)methyl)-4-(1-methylcyclobutyl)-1,4-dihydropyrazine-2,3-dione] |
| 8 nM | CC1(n2ccn(Cc3nnc(-c4ccc(F)cc4)s3)c(=O)c2=O)CCC1 [Example 83, 1-((5-(4-fluorophenyl)-1,3,4-thiadiazol-2-yl)methyl)-4-(1-methylcyclobutyl)-1,4-dihydropyrazine-2,3-dione] |
| 13 nM | Cc1ccccc1-c1nnc(CN2CCN(C34CC(C3)C4)C(=O)C2=O)s1 [Example 84, 1-(bicyclo[1.1.1]pentan-1-yl)-4-((5-(o-tolyl)-1,3,4-thiadiazol-2-yl)methyl)piperazine-2,3-dione] |
